Experimental data as given in patent US10278940B2, “Use of 2,5-dihydroxybenzene compounds and derivatives for the treatment of skin cancer” (AmDerma Pharmaceuticals, LLC, priority 2006, dated 2019).

What was measured:
rat glioma C6 cells = assay: Rat glioma C6 cell proliferation, crystal violet staining; type: cell-based; conditions: 48 h; for rat glioma cell proliferation (absorbance at 595 nm, % of control): 500 μM; for C6 cell proliferation: relative to control
Protocol: The cell line used was rat glioma C6 cells. The cells were cultured as previously described (Cuevas P et al. Neural Res, 2005). The cells were cultured as adherent cells in Dulbecco's modified Eagle's medium, supplemented with 7.5% (v/v) of fetal bovine serum, 10 μg/ml of streptomycin and 10 units/ml of penicillin. The tumor cells were seeded in 24-well plates at a density of 10,000 cells/well, and were incubated at 37° C. in a humidified chamber with 5% CO2. Once adhered, the cells were treated or not (controls) with 2,5-dihydroxybenzoate at 100, 200, 500 or 1000 µM and they were allowed to proliferate for 48 h. After this time the glioma cell proliferation was evaluated by means of staining the fixed cells with crystal violet. The number of cells is proportional to the amount of retained dye, which was spectrophotometrically determined by measuring the absorbance at 595 nm once the dye was extracted from the cells.
(§1) The cell line used was the C6 cell line and the experiment was carried out as described in Example 2. Once adhered, the cells were treated or not (controls) with increasing concentrations of 2,5-DHC (10, 25, 50 and 100 μM) and they were allowed to proliferate for 48 h. After this time the glioma cell proliferation was evaluated by means of staining the fixed cells with crystal violet. The number of cells is proportional to the amount of retained dye, which was determined spectrophotometrically by measuring absorbance at 595 nm once the dye was extracted from the cells.
as §1, with “examples 2 and 3.” for “Example 2.”, “(5A-2HBS) (500 μM) or (2A-5HBS) (500” for “increasing concentrations of 2,5-DHC (10, 25, 50 and 100”, “measuring the” for “measuring”

bFGF-induced fibrosis = bFGF-induced fibrosis around subcutaneously implanted gelatin sponges; type: in vivo, Sprague-Dawley rats; conditions: 100 μM in sponge with bFGF 10 μg/ml and heparin; subcutaneous; 7 days
Protocol: Sterile gelatin sponges ([…]; Curaspon Dental, Clinimed Holding, Zwanenburg, The Netherlands) were subcutaneously implanted in the dorsal region of the neck in Sprague-Dawley rats after the induction of intraperitoneal anesthesia. The animals were split into two groups: group A, the sponges were moistened with 200 III of saline solution which contained 25 μg/ml of heparin and 10 μg/ml of basic FGF (bFGF); group B, the sponges were moistened in the same solution as in group A, but which solution further contained 2,5-dihydroxybenzoate (100 μM). After 7 days, the sponges and the surrounding subcutaneous fat were removed and histologically analyzed.

[1] = target: T1, Fibroblast Growth Factor-1 (FGF-1) (Homo sapiens, UniProt P05230); assay: Mitogenesis induced by FGF-1 in quiescent Balb/c 3T3 fibroblast cultures; type: cell-based
T1 construct: host or cells: added to Balb/c 3T3 fibroblast cultures
T1 sequence (P05230 whole entry, species assumed): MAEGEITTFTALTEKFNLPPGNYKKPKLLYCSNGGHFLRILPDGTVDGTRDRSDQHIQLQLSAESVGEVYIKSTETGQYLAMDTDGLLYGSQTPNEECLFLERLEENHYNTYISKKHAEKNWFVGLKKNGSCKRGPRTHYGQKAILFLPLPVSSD
Protocol: The evaluated compounds were used in the form of potassium salt, except in the first case which used calcium salt. The experiments were carried out as described in Femandez-Tomero C et al. J Bioi Chern, 2003.

[2] = target: T1, Fibroblast Growth Factor-1 (FGF-1); assay: Crystal diffraction of FGF-1:compound complexes; conditions: electron density contoured at 1σ; acetoxyl groups conserved on binding
Protocol: Based on the crystal diffraction of the FGF-1:2-acetoxy-5-hydroxybenzene sulfonic acid, FGF-1:5-acetoxy-2-hydroxybenzene sulfonic acid and FGF-1:2,5-diacetoxybenzene sulfonic acid complexes, the structures of the complexes were calculated and represented. FIGS. 13, 14 and 15, which show the surface of the dyed protein according to its electrostatic potential (light grey, negative charge; dark grey, positive charge; white, regions with no charge), show the manner in which 2-acetoxy-5-hydroxybenzene sulfonic acid, 5-acetoxy-2-hydroxybenzene sulfonic acid and 2,5-diacetoxybenzene sulfonic acid interact, respectively, with FGF-1.

[3] = tested on: subcutaneous gliomas (rat C6 glioma cells); assay: Apoptosis in sections of subcutaneous gliomas (hematoxylin and eosin); type: in vivo, rats; conditions: 100 mg/kg/day i.p. for 10 days; vs carrier
From the text: Tumor cells elude the programmed cell death process or apoptosis that normal cells experience. Apoptosis induction in tumor cells is one way to confront the development of a tumor. To evaluate the effect of potassium 2,5-[…] sulfonate (DABS) on tumor cell apoptosis, 6).lm thick sections of the subcutaneous gliomas described in example 4 were made. The sections were stained with hematoxylin and eosin and observed at a magnification of 313 times using immersion oil. In these conditions, cell apoptosis is shown by the existence of apoptotic bodies appearing as strongly chromogenic granules in the cell nucleus which is frequently fragmented.

[4] = tested on: human prostate cancer PC-3 cells; assay: Human tumor cell proliferation, XTT viability method; type: cell-based; conditions: 1-200 μM; 96 h
Protocol: (§2) The cell lines used were the human prostate cancer PC-3 cells and human lung cancer A549 cells. 2000 cells were seeded per well in 96-well plates and they were allowed to adhere overnight. Then the cells were treated or not (controls) with potassium 2,5-diacetoxybenzene sulfonate (DABS) (1-200 μM) and they were allowed to proliferate for 96 h. After this time, the PC-3 and A549 cell proliferation was evaluated by determining the final number of cells by means of the viability method of yellow tetrazolium salt (XTT). The data were expressed as a percentage of the control (without treatment).

[5] = tested on: human lung cancer A549 cells; assay: as above; type: cell-based; conditions: 1-200 μM; 96 h
Protocol: as §2

[6] = tested on: subcutaneous gliomas (rat C6 glioma cells); assay: Progression of established subcutaneous C6 gliomas in rats; type: in vivo
Protocol: Rat C6 glioma cells were cultured as previously described (Cuevas P et al. Neural Res, 2005). The C6 cells cultured to confluence in 75 cm^2 flasks were removed and implanted under the abdominal skin in anesthetized rats. The existence of a tumor in the implantation area was observed five days after the implantation of the tumor cells. Only the rats in which the existence of a tumor was observed were randomly assigned to be treated with daily intraperitoneal injections of 2,5-dihydroxybenzene sulfonate (DHBS; 100 mg/kg/day), 2,5-diacetoxybenzene sulfonate (DABS; 100 mg/kg/day) or the carrier (0.9% NaCl). After 10 days of treatment, the subcutaneous gliomas were removed and their volume was calculated according to the formula V=4/3π.(L/2).(A/2)^2 (in mm^3) where L is the larger diameter and A is the smaller diameter, both expressed in mm.

[7] = tested on: human prostate cancer PC-3 cells; assay: Subcutaneous PC-3 prostate cancer cell implantation model in athymic mice; type: in vivo, athymic mice (Nu/Nu); conditions: 100 mg/kg daily i.p. for 15 days, vs carrier
Protocol: 5×10^6 human prostate cancer PC-3 cells were subcutaneously injected in male athymic mice (Nu/Nu) of 6-8 weeks of age and weighing 20-26 g. Ten days after the implantation of the tumor cells, the mice were randomly split into two groups: one of them received a daily injection of potassium 2,5-diacetoxybenzene sulfonate (DABS) by intraperitoneal route at a dose of 100 mg/kg dissolved in saline (0.9% NaCl) whereas the other group received a daily injection of carrier (saline). The treatments were administered for 15 days. The volumes of the tumors induced by the implantation of PC-3 cells were measured through the skin on alternating days using a Vernier caliper. The volume was calculated using the formula […], where D is the larger diameter in mm, d is the smaller diameter in mm and V is the volume in mm^3. At the end of treatment, the mice were sacrificed and the tumors were weighed.

O=C([O-])c1cc(O)ccc1O.[K+] [2,5-dihydroxybenzoate, potassium 2,5-dihydroxybenzoate]
rat glioma C6 cell proliferation (absorbance at 595 nm) (rat glioma C6 cells; 100, 200, 500 or 1000 μM): inhibited rat glioma C6 cell proliferation in a concentration-dependent manner | statistical significance of the inhibition of C6 cell proliferation (rat glioma C6 cells; at 500 and 1000 μM, vs control): statistically significant | bFGF-induced fibrosis (fibroblasts in septa of connective tissue of adipose tissue) (bFGF-induced fibrosis): reduces bFGF-induced fibrosis

CC(=O)Oc1ccc(O)c(S(=O)(=O)[O-])c1.[K+] [5A-2HBS, potassium 5-acetoxy-2-hydroxybenzene sulfonate]
mitogenesis induced by FGF-1 [1]: inhibition of mitogenesis induced by FGF-1 | binding site on FGF-1 in the co-crystal [2]: occupy a site that is very close to the one that has been described occupied by 2,5-dihydroxybenzene sulfonic acid | rat glioma cell proliferation (absorbance at 595 nm, % of control) (rat glioma C6 cells): caused the inhibition of rat glioma cell proliferation

O=C(O)C=Cc1cc(O)ccc1O [2,5-DHC, 3-(2,5-dihydroxyphenyl)-2-propenoic acid]
C6 cell proliferation (rat glioma C6 cells; 50 µM): reduced the C6 cell proliferation to less than half | C6 cell proliferation (rat glioma C6 cells; 100 μM): reduced to one tenth

CC(=O)Oc1ccc(O)cc1S(=O)(=O)[O-].[K+] [2A-5HBS, potassium 2-acetoxy-5-hydroxybenzene sulfonate]
binding site on FGF-1 in the co-crystal [2]: occupy a site that is very close to the one that has been described occupied by 2,5-dihydroxybenzene sulfonic acid | rat glioma cell proliferation (absorbance at 595 nm, % of control) (rat glioma C6 cells): caused the inhibition of rat glioma cell proliferation

CC(=O)Oc1ccc(OC(C)=O)c(S(=O)(=O)[O-])c1.[K+] [DABS, potassium 2,5-diacetoxybenzene sulfonate]
tumor cells in apoptosis in glioma sections [3]: a large number of tumor cells in apoptosis can be observed | PC-3 cell proliferation (number of viable cells, % of control) [4]: significant inhibition | A549 cell proliferation (number of viable cells, % of control) [5]: significant inhibition | probability of being tumor-free (χ2 test) ([6]; DABS group vs DHBS group, 100 mg/kg/day each): greater probability of being tumor-free | rats tumor-free when treatment ended ([6]; i.p. 100 mg/kg/day for 10 days, all rats had established tumors before treatment): 4 rats | mitogenesis induced by FGF-1 [1]: inhibition of mitogenesis induced by FGF-1 | binding site on FGF-1 in the co-crystal [2]: occupy a site that is very close to the one that has been described occupied by 2,5-dihydroxybenzene sulfonic acid | tumor growth (tumor volume measured through the skin) ([7]; started 10 days after implantation): significantly reduced the human prostate cell tumor growth | weight of the extracted tumor when treatment ended [7]: significant reduction of the weight of the extracted tumor

calcium 2-acetoxy-5-hydroxybenzene sulfonate
mitogenesis induced by FGF-1 [1]: inhibition of mitogenesis induced by FGF-1

O=S(=O)([O-])c1cc(O)ccc1O.[K+] [DHBS, potassium 2,5-dihydroxybenzene sulfonate, reference compound]
average size (volume) of the subcutaneous gliomas ([6]; i.p. 100 mg/kg/day for 10 days, started on day 5 after implantation, vs carrier): less than that of the rats treated with carrier | mitogenesis induced by FGF-1 [1]: inhibition of the mitogenesis induced by fibroblast growth factor-1
